Measurements from paper PMC11478334, “Quaternized Curcumin Derivative—Synthesis, Physicochemical Characteristics, and Photocytotoxicity, Including Antibacterial Activity after Irradiation with Blue Light” (Molecules, 2024).
Read-outs that look alike come from different tables or passages of the source.

How the values were obtained:
S. aureus = conditions: cited from earlier work
P. aeruginosa = conditions: 50 µg/mL; 670 nm; 97.65 J/cm^2; 5 min; cited from earlier work
[1] = cited from earlier work
[2] = set-up: method as in doi:10.1016/j.synthmet.2008.06.007; conditions: TTF column, cited from earlier work
Aliivibrio fischeri = assay: Microtox acute toxicity test; type: cell-based; conditions: tested at 1, 10 and 100 µM
Source text: All studied compounds were subjected to a Microtox acute toxicity test. The test is based on bioluminescent Aliivibrio fischeri bacteria, which are very sensitive to the presence of toxic substances. Changes in the toxicity of the environment surrounding the bacterium influence its respiratory processes and translate into the emitted bioluminescence intensity. Therefore, in contact with a toxic substance at a specific concentration, a linear decrease in luminescence is observed. Dimethylsulfoxide was used as a solubilizer of studied compounds in amounts not exceeding 1% v/v. To determine the effect of the solvent alone, 1% DMSO solution in water was also tested.
The acute toxicity of the tested curcumionoids was investigated on a Modern Water Microtox Model 500 apparatus equipped with Modern Water MicrotoxOmni 4.2 software, according to the 81.9% screening test procedure provided by the manufacturer (Modern Water, London, UK). All the reagents and solutions (Microtox Acute Reagent, Microtox Diluent, and Microtox Osmotic Adjusting Solution) were purchased from Tigret (Warsaw, Poland). Solutions of the tested compounds were prepared using DMSO and deionized water. […] Each compound was tested at three final concentrations (1 µM, 10 µM, and 100 µM) and at two time points: 5 min and 15 min. The change in the bacterial bioluminescence was monitored after the addition of the sample solution and compared to the negative control.

SMILES: O=C([O-])c1c(Cl)c(Cl)c(Cl)c(Cl)c1-c1c2cc(I)c(=O)c(I)c-2oc2c(I)c([O-])c(I)cc12.[Na+].[Na+] [Rose bengal]
- Efficiency (log reduction) (S. aureus; 0.31 µg/mL, 515 nm, 5.8 mW/cm^2, 37 J/cm^3): 6 log
- Efficiency (log reduction) (S. aureus; 0.62 µg/mL, 515 nm, 5.8 mW/cm^2, 18 J/cm^2): 6 log

SMILES: Cc1cc2nc3ccc(N(C)C)cc3[s+]c2cc1N.[Cl-] [Toluidine blue]
- Efficiency (log reduction) (S. aureus; 50 µg/mL, 670 nm, 97.65 J/cm^2, 5 min): 2.66 log
- Efficiency (log reduction) (P. aeruginosa): 2.36 log

SMILES: [Zn+2].c1ccc2c(c1)-c1nc-2nc2[n-]c(nc3nc([n-]c4nc(n1)-c1ccccc1-4)-c1ccccc1-3)c1ccccc21 [ZnPc, zinc(II) phthalocyanine]
- 10^−5 Φp (photodecomposition quantum yield) ([1]; DMF): 1.02 [38] 10^−5
- ΦP (photodecomposition quantum yield) ([1]; DMF): 10.2 × 10^−6
- 10^−5 Φp (photodecomposition quantum yield) ([1]; DMSO): 0.35 [39] 10^−5
- ΦP (photodecomposition quantum yield) ([1]; DMSO): 3.5 × 10^−6
- singlet oxygen quantum yield ([2]; DMF): 0.56 [39]
- singlet oxygen quantum yield ([2]; DMSO): 0.67 [39]

SMILES: COc1cc(C=CC2=CC(C=Cc3ccc(O)c(OC)c3)=[O+][B-](F)(F)O2)ccc1O [curcumin–BF2 complex, reference compound]
- acute toxicity / ecotoxicity verdict (Aliivibrio fischeri): toxic at every concentration tested
